Data published in ChEMBL document CHEMBL2440076, “New triarylpyrazoles as broad-spectrum anticancer agents: design, synthesis, and biological evaluation” (Eur J Med Chem, 2013).

Legend:
DU-145 = test: Growth inhibition of human DU145 cells assessed as cell growth at 10 uM after 48 hrs by sulforhodamine B assay; type: functional; details: DU-145, 48 h, read-out: Activity
SK-MEL-28 = test: Growth inhibition of human SK-MEL-28 cells assessed as cell growth at 10 uM after 48 hrs by sulforhodamine B assay; type: functional; details: SK-MEL-28, 48 h, read-out: Activity
OVCAR-5 [1] = test: Growth inhibition of human OVCAR5 cells assessed as cell growth at 10 uM after 48 hrs by sulforhodamine B assay; type: functional; details: OVCAR-5, 48 h, read-out: Activity
NCI-H23 = test: Growth inhibition of human NCI-H23 cells assessed as cell growth at 10 uM after 48 hrs by sulforhodamine B assay; type: functional; details: NCI-H23, 48 h, read-out: Activity
MDA-MB-231 [2] = test: Growth inhibition of human MDA-MB-231 cells assessed as cell growth at 10 uM after 48 hrs by sulforhodamine B assay; type: functional; details: MDA-MB-231, 48 h, read-out: Activity
K562 = test: Growth inhibition of human K562 cells assessed as cell growth at 10 uM after 48 hrs by sulforhodamine B assay; type: functional; details: K562, 48 h, read-out: Activity
SW-620 = test: Growth inhibition of human SW620 cells assessed as cell growth at 10 uM after 48 hrs by sulforhodamine B assay; type: functional; details: SW-620, 48 h, read-out: Activity
M14 = test: Growth inhibition of human M14 cells assessed as cell growth at 10 uM after 48 hrs by sulforhodamine B assay; type: functional; details: M14, 48 h, read-out: Activity
COLO 205 = test: Growth inhibition of human COLO205 cells assessed as cell growth at 10 uM after 48 hrs by sulforhodamine B assay; type: functional; details: COLO 205, 48 h, read-out: Activity
U-251 = test: Growth inhibition of human U251 cells assessed as cell growth at 10 uM after 48 hrs by sulforhodamine B assay; type: functional; details: U-251, 48 h, read-out: Activity
SF-268 = test: Growth inhibition of human SF268 cells assessed as cell growth at 10 uM after 48 hrs by sulforhodamine B assay; type: functional; details: SF-268, 48 h, read-out: Activity
RPMI-8226 = test: Growth inhibition of human RPMI8226 cells assessed as cell growth at 10 uM after 48 hrs by sulforhodamine B assay; type: functional; details: RPMI-8226, 48 h, read-out: Activity
T47D = test: Growth inhibition of human T47D cells assessed as cell growth at 10 uM after 48 hrs by sulforhodamine B assay; type: functional; details: read-out: Activity
HOP-62 = test: Growth inhibition of human HOP62 cells assessed as cell growth at 10 uM after 48 hrs by sulforhodamine B assay; type: functional; details: HOP-62, 48 h, read-out: Activity
IGROV-1 = test: Growth inhibition of human IGROV1 cells after 48 hrs by sulforhodamine B assay; type: functional; details: IGROV-1, 48 h
[3] = Growth inhibition of human Hs 578T cells after 48 hrs by sulforhodamine B assay; type: functional
NCI-H460 = test: Growth inhibition of human NCI-H460 cells after 48 hrs by sulforhodamine B assay; type: functional; details: NCI-H460, 48 h
PC-3 = test: Growth inhibition of human PC3 cells after 48 hrs by sulforhodamine B assay; type: functional, cell-based; details: PC-3, 48 h
OVCAR-5 [4] = test: Growth inhibition of human OVCAR5 cells after 48 hrs by sulforhodamine B assay; type: functional; details: OVCAR-5, 48 h
MOLT-4 = test: Growth inhibition of human MOLT4 cells after 48 hrs by sulforhodamine B assay; type: functional; details: MOLT-4, 48 h
UACC-257 = test: Growth inhibition of human UACC257 cells after 48 hrs by sulforhodamine B assay; type: functional; details: UACC-257, 48 h
KM12 = test: Growth inhibition of human KM12 cells after 48 hrs by sulforhodamine B assay; type: functional, cell-based; details: KM12, 48 h
[5] = Growth inhibition of human NCI-ADR-RES cells after 48 hrs by sulforhodamine B assay; type: functional
SK-MEL-2 = test: Growth inhibition of human SK-MEL-2 cells after 48 hrs by sulforhodamine B assay; type: functional; details: SK-MEL-2, 48 h
HL-60(TB) = test: Growth inhibition of human HL-60(TB) cells after 48 hrs by sulforhodamine B assay; type: functional; details: HL-60, 48 h
NCI-H322M = test: Growth inhibition of human NCI-H322M cells after 48 hrs by sulforhodamine B assay; type: functional
MDA-MB-231 [6] = test: Growth inhibition of human MDA-MB-231 cells after 48 hrs by sulforhodamine B assay; type: functional; details: MDA-MB-231, 48 h
RXF 393 = test: Growth inhibition of human RXF393 cells after 48 hrs by sulforhodamine B assay; type: functional; details: RXF 393, 48 h
CCRF-CEM = test: Growth inhibition of human CCRF-CEM cells after 48 hrs by sulforhodamine B assay; type: functional
MDA-MB-435 = test: Growth inhibition of human MDA-MB-435 cells after 48 hrs by sulforhodamine B assay; type: functional, cell-based; details: MDA-MB-435, 48 h
MCF7 = test: Growth inhibition of human MCF7 cells after 48 hrs by sulforhodamine B assay; type: functional; details: MCF7, 48 h
BT-549 = test: Growth inhibition of human BT549 cells after 48 hrs by sulforhodamine B assay; type: functional; details: BT-549, 48 h
[7] = read-out: LC50 (the source's name)

O=C(Nc1cccc(-n2cc(-c3ccncc3)c(-c3ccc(Cl)c(O)c3)n2)c1)c1ccc(Cl)c(C(F)(F)F)c1
growth at 10 µM (DU-145): 95%
growth at 10 µM (SK-MEL-28): 94.1%
growth at 10 µM (OVCAR-5 [1]): 99.6%
growth at 10 µM (NCI-H23): 105%
growth at 10 µM (MDA-MB-231 [2]): 73.5%
growth at 10 µM (K562): 105%
growth at 10 µM (SW-620): 112%
growth at 10 µM (M14): 82.5%
growth at 10 µM (COLO 205): 104%
growth at 10 µM (U-251): 95.9%
growth at 10 µM (SF-268): 98.1%
growth at 10 µM (RPMI-8226): 98.1%
growth at 10 µM (T47D): 100%
growth at 10 µM (HOP-62): 99.4%

O=C(Nc1cccc(-n2cc(-c3ccncc3)c(-c3ccc(Cl)c(O)c3)n2)c1)Nc1ccc(Cl)c(Cl)c1
GI50 (IGROV-1): 1.77 µM
LC50 (concentration killing 50% of cells) (IGROV-1): > 32.5 µM
TGI (IGROV-1): > 32.5 µM
GI50 [3]: 0.785 µM
TGI [3]: 3.15 µM
CC50 [3, 7]: > 32.5 µM
GI50 (NCI-H460): 0.993 µM
LC50 (NCI-H460): 24.2 µM
TGI (NCI-H460): 3.57 µM
GI50 (PC-3): 0.834 µM
IC50 (PC-3): 0.83 µM
TGI (PC-3): > 32.5 µM
CC50 (PC-3; [7]): > 32.5 µM
growth at 10 µM (DU-145): 25.9%
growth at 10 µM (SK-MEL-28): 24.6%
GI50 (OVCAR-5 [4]): 2.4 µM
LC50 (concentration killing 50% of cells) (OVCAR-5 [4]): > 32.5 µM
TGI (OVCAR-5 [4]): > 32.5 µM
growth at 10 µM (OVCAR-5 [1]): 56.4%
GI50 (MOLT-4): 1.38 µM
TGI (MOLT-4): > 32.5 µM
CC50 (MOLT-4; [7]): > 32.5 µM
growth at 10 µM (NCI-H23): 13.5%
GI50 (UACC-257): 0.93 µM
TGI (UACC-257): 3.16 µM
CC50 (UACC-257; [7]): > 32.5 µM
GI50 (KM12): 1.01 µM
TGI (KM12): 4.47 µM
CC50 (KM12; [7]): 26.3 µM
growth at 10 µM (MDA-MB-231 [2]): -0.72%
growth at 10 µM (K562): 11.4%
growth at 10 µM (SW-620): 24.5%
GI50 [5]: 2.74 µM
TGI [5]: > 32.5 µM
CC50 [5, 7]: > 32.5 µM
GI50 (SK-MEL-2): 1.03 µM
LC50 (50% lethal concentration) (SK-MEL-2): > 32.5 µM
TGI (SK-MEL-2): 2.64 µM
growth at 10 µM (M14): 17.2%
growth at 10 µM (COLO 205): 30.2%
GI50 (HL-60(TB)): 0.515 µM
TGI (HL-60(TB)): > 32.5 µM
CC50 (HL-60(TB); [7]): > 32.5 µM
GI50 (NCI-H322M): 2.89 µM
TGI (NCI-H322M): > 32.5 µM
CC50 (NCI-H322M; [7]): > 32.5 µM
growth at 10 µM (U-251): 12.4%
growth at 10 µM (SF-268): 29.1%
GI50 (MDA-MB-231 [6]): 1.18 µM
LC50 (MDA-MB-231 [6]): > 32.5 µM
TGI (MDA-MB-231 [6]): 8.33 µM
growth at 10 µM (RPMI-8226): 7.89%
GI50 (RXF 393): 1 µM
LC50 (concentration killing 50% of cells) (RXF 393): > 32.5 µM
TGI (RXF 393): 6.4 µM
growth at 10 µM (T47D): 23%
GI50 (CCRF-CEM): 1.03 µM
LC50 (CCRF-CEM): > 32.5 µM
TGI (CCRF-CEM): > 32.5 µM
growth at 10 µM (HOP-62): 34.4%
GI50 (MDA-MB-435): 1.1 µM
IC50 (MDA-MB-435): 1.1 µM
TGI (MDA-MB-435): 6.05 µM
CC50 (MDA-MB-435; [7]): > 32.5 µM
GI50 (MCF7): 1.06 µM
LC50 (MCF7): > 32.5 µM
TGI (MCF7): > 32.5 µM
GI50 (BT-549): 1.7 µM
LC50 (50% lethal concentration) (BT-549): > 32.5 µM
TGI (BT-549): 16.1 µM

O=C(Nc1cccc(-n2cc(-c3ccncc3)c(-c3ccc(Cl)c(O)c3)n2)c1)c1ccccc1
growth at 10 µM (DU-145): 56.9%
growth at 10 µM (SK-MEL-28): 48.1%
growth at 10 µM (OVCAR-5 [1]): 115%
growth at 10 µM (NCI-H23): 90.8%
growth at 10 µM (MDA-MB-231 [2]): 63.2%
growth at 10 µM (K562): 60.7%
growth at 10 µM (SW-620): 76.9%
growth at 10 µM (M14): 54.9%
growth at 10 µM (COLO 205): 100%
growth at 10 µM (U-251): 75.4%
growth at 10 µM (SF-268): 68.3%
growth at 10 µM (RPMI-8226): 60.5%
growth at 10 µM (T47D): 73.9%
growth at 10 µM (HOP-62): 46.7%

COc1cc(-c2nn(-c3cccc(NC(=O)Nc4ccccc4)c3)cc2-c2ccncc2)ccc1Cl
growth at 10 µM (DU-145): 101%
growth at 10 µM (SK-MEL-28): 86.3%
growth at 10 µM (OVCAR-5 [1]): 91.3%
growth at 10 µM (NCI-H23): 100%
growth at 10 µM (MDA-MB-231 [2]): 88%
growth at 10 µM (K562): 45.4%
growth at 10 µM (SW-620): 82.8%
growth at 10 µM (M14): 85.7%
growth at 10 µM (COLO 205): 92.4%
growth at 10 µM (U-251): 85%
growth at 10 µM (SF-268): 81.2%
growth at 10 µM (RPMI-8226): 68%
growth at 10 µM (T47D): 75.6%
growth at 10 µM (HOP-62): 87.2%
